The source made the active and inactive calls. The rule behind the calls is not given here. Bridge positions count the residues as written; N and C are the ends. Peptide text beside a SMILES is read from it. I, II: the chains in the order shown.
Assays:
[1] = biological target: T1, Frizzled-7 (Homo sapiens, UniProt O75084); format: cell-based; conditions: cho
[2] = biological target: T2, Frizzled-9 (Homo sapiens, UniProt O00144); experiment: Binding affinity to Frizzled-9 CRD (unknown origin)
T2 sequence (O00144 whole entry): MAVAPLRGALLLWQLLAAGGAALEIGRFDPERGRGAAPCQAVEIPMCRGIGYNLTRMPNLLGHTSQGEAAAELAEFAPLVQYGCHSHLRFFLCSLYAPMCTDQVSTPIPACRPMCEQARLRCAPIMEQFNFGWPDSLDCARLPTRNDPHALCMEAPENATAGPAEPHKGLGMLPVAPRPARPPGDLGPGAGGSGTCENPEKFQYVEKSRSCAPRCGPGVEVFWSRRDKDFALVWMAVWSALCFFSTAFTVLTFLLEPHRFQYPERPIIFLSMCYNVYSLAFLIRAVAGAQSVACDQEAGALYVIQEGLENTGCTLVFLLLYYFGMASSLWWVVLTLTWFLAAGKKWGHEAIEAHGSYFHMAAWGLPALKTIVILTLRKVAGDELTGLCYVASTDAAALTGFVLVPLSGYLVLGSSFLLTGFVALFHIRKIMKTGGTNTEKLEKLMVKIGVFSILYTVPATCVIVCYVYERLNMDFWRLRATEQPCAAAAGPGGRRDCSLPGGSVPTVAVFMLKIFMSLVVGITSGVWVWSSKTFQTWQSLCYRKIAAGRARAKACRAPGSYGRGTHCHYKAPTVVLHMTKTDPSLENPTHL

[3] = biological target: T3, Frizzled-4 (Homo sapiens, UniProt Q9ULV1); experiment: Binding affinity to recombinant human Frizzled-4 (Phe37 to Glu180 residues)/human IgG1 chimeric protein expressed in mouse NS0 cells by SPR assay
T3 sequence (Q9ULV1 whole entry): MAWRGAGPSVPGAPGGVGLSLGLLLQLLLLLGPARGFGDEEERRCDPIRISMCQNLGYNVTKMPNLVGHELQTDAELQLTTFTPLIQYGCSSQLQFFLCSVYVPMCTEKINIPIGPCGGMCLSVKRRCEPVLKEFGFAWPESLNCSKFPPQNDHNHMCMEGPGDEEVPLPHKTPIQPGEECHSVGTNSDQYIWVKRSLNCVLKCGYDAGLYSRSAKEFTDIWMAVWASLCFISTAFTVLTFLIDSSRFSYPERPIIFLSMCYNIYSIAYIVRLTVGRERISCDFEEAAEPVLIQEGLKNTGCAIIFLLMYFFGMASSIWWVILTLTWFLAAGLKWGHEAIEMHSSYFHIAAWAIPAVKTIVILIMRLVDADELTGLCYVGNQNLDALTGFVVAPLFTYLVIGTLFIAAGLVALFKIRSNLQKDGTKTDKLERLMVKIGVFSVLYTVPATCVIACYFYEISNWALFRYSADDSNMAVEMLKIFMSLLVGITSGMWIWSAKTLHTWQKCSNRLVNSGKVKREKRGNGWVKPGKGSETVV

[4] = biological target: Frizzled-8 (Homo sapiens, UniProt Q9H461); experiment: Binding affinity to recombinant human Frizzled-8 (Ala25 to Pro172 residues)/human IgG1 chimeric protein expressed in CHO cells […] by SPR assay
Chain of Frizzled-8 (Q9H461 whole entry): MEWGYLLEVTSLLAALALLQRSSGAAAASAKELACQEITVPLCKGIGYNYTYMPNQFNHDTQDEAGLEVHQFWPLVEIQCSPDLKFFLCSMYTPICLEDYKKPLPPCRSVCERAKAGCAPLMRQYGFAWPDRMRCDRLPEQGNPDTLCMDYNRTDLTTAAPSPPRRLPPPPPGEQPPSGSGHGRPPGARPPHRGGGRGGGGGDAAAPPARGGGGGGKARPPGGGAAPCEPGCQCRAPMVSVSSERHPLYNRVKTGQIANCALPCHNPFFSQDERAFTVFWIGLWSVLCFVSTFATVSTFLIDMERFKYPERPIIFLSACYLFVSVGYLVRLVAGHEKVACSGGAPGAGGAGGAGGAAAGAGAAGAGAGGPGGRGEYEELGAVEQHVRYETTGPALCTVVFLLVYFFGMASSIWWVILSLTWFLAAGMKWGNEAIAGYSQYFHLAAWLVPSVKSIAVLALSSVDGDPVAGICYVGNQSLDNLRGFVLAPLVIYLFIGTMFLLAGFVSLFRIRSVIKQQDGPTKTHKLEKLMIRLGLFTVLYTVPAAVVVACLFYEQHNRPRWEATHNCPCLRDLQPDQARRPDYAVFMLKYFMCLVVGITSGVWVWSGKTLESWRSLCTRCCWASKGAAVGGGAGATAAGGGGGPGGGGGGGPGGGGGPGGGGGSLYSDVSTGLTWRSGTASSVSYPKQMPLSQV

[5] = biological target: T1, Frizzled-7; experiment: Binding affinity to recombinant human Frizzled-7 (Gln33 to Leu185 residues)/human IgG1 chimeric protein expressed in CHO cells assessed as reduction in interaction of TcdB with FZD7 incubated for 1 hr by competition ELISA; format: cell-based
[6] = biological target: T1, Frizzled-7; experiment: Inhibition of Frizzled-7 in HEK293 cells expressing Wnt assessed as reduction in Wnt signaling by firefly luciferase reporter gene assay; format: cell-based
[7] = biological target: Frizzled-5 (Homo sapiens, UniProt Q13467); experiment: Binding affinity to recombinant human Frizzled-5 (Ala27 to Pro167 residues)/human IgG1 chimeric protein expressed in mouse NS0 cells by SPR assay
Chain of Frizzled-5 (Q13467 whole entry): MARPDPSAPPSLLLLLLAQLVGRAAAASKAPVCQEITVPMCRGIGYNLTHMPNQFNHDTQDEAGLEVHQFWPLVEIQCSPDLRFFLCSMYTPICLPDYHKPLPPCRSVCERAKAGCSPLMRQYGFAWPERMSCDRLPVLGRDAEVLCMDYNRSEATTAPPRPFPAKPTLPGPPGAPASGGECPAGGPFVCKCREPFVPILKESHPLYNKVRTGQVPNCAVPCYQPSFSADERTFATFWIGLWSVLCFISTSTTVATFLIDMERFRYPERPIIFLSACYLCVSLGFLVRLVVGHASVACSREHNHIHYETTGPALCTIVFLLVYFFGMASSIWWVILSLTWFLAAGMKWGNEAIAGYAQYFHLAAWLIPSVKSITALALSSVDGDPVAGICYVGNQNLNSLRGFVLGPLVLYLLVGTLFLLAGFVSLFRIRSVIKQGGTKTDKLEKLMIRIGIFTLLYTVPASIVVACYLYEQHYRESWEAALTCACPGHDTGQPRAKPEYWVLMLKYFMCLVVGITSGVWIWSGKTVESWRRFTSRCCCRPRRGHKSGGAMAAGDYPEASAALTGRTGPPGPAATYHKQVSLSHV

[8] = biological target: T1, Frizzled-7; conditions: CHO
[9] = Binding affinity to recombinant human/mouse Frizzled-2 (Gln29 to Leu168 residues)/human IgG1 chimeric protein expressed in mouse NS0 cells assessed as reduction in interaction of TcdB with FZD7 incubated for 1 hr by competition ELISA; format: cell-based
[10] = Binding affinity to recombinant human/mouse Frizzled-2 (Gln29 to Leu168 residues)/human IgG1 chimeric protein expressed in mouse NS0 cells by SPR assay
[11] = biological target: T4, Frizzled-10 (Homo sapiens, UniProt Q9ULW2); experiment: Binding affinity to Frizzled-10 CRD (unknown origin)
T4 sequence (Q9ULW2 whole entry): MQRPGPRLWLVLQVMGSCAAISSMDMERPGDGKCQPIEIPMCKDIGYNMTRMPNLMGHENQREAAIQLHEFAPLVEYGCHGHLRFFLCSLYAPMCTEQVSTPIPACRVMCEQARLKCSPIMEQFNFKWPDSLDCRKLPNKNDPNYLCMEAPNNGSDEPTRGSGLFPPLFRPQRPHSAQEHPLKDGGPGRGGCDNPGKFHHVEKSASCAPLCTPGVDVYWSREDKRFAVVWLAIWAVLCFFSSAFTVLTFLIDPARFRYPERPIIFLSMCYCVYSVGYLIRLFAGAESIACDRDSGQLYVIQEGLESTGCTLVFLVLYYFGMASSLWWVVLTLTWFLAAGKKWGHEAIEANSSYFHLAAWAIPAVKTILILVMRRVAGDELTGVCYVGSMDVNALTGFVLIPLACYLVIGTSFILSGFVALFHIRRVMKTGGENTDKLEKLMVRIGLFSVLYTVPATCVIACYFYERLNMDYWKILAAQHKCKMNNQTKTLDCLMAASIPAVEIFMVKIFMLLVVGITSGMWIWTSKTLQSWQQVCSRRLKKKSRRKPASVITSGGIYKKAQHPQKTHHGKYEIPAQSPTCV

[12] = biological target: T1, Frizzled-7; experiment: biochemical; format: cell-based, CHO; conditions: read-out: Kd
[13] = biological target: Frizzled-1 (Homo sapiens, UniProt Q9UP38); experiment: Binding affinity to recombinant human Frizzled-1 (Gln73 to His253 residues)/human IgG1 chimeric protein expressed in mouse NS0 cells by SPR assay
Chain of Frizzled-1 (Q9UP38 whole entry): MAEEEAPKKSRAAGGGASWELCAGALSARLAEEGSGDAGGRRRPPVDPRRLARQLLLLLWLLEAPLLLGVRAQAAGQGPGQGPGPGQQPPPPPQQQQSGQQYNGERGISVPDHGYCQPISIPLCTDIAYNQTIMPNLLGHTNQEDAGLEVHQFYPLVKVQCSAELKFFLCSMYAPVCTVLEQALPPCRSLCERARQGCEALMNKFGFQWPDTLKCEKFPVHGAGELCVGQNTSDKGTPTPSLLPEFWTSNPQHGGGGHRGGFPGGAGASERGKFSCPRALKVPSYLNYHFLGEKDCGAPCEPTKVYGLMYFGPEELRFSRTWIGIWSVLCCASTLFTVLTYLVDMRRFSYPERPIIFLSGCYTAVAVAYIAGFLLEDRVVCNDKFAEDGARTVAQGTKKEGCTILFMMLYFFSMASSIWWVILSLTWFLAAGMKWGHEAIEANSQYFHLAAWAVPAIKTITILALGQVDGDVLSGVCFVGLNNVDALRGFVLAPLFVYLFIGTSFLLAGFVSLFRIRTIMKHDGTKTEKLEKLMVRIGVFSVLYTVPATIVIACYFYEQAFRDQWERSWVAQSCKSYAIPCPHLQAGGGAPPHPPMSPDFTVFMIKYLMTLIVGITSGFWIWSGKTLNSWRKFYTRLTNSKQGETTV

[14] = 40 min, 20 µM
[15] = Stability in presence of TCEP assessed as disulfide reduction at 20 uM measured over 40 mins at 37 degC by LC-MS analysis; format: physicochemical
[16] = mouse, serum, 24 h, 200 µM
[17] = 40 min, 20 µM; remark: listed apart in the source
[18] = biological target: T1, Frizzled-7; experiment: Binding affinity to recombinant human Frizzled-7 (Gln33 to Leu185 residues)/human IgG1 chimeric protein expressed in CHO cells assessed as association rate constant by SPR assay; format: cell-based
[19] = organism: Homo sapiens; experiment: Binding affinity to recombinant human/mouse Frizzled-2 (Gln29 to Leu168 residues)/human IgG1 chimeric protein expressed in mouse NS0 cells assessed as reduction in interaction of TcdB with FZD7 by SPR
[20] = biological target: T1, Frizzled-7; experiment: Binding affinity to recombinant human Frizzled-7 (Gln33 to Leu185 residues)/human IgG1 chimeric protein expressed in CHO cells assessed as reduction in interaction of TcdB with FZD7 by SPR

## CSCC[C@H](NC(=O)[C@@H](NC(=O)[C@H](Cc1cnc[nH]1)NC(=O)[C@H](CSSC[C@H](NC(=O)[C@H](Cc1c[nH]c2ccccc12)NC(=O)[C@H](Cc1ccccc1)NC(=O)[C@H](CCC(=O)O)NC(=O)[C@H](CC(C)C)NC(=O)[C@H](CC(=O)O)NC(=O)[C@H](CC(=O)O)NC(=O)[C@H](CO)NC(=O)[C@@H]1CCCN1C(=O)[C@H](CC(C)C)NC(C)=O)C(=O)N[C@@H](Cc1cnc[nH]1)C(=O)N[C@H](C(=O)N[C@@H](CCSC)C(=O)N[C@@H](Cc1ccc(O)cc1)C(N)=O)C(C)C)NC(=O)[C@H](Cc1c[nH]c2ccccc12)NC(=O)[C@H](Cc1ccccc1)NC(=O)[C@H](CCC(=O)O)NC(=O)[C@H](CC(C)C)NC(=O)[C@H](CC(=O)O)NC(=O)[C@H](CC(=O)O)NC(=O)[C@H](CO)NC(=O)[C@@H]1CCCN1C(=O)[C@H](CC(C)C)NC(C)=O)C(C)C)C(=O)N[C@@H](Cc1ccc(O)cc1)C(N)=O (I: Ac-LPSDDLEFWCHVMY-NH2 / II: Ac-LPSDDLEFWCHVMY-NH2; disulfide I:10-II:10)
[1]
  Kd: 5.6 ×10⁻³ /s
[2]
  Kd: Not Active
[3]
  Kd: Not Active
[4]
  Kd: Not Active
[5]
  inhibition: Dose-dependent effect
[6]
  IC50: 32 nM
[7]
  Kd: Not Active
[8]
  Ka: 47.5 ×10⁵ /M/s
[9]
  inhibition: Dose-dependent effect
[10]
  Kd: 1.46 nM
[11]
  Kd: Not Active
[12]
  Kd: 1.18 nM
[13]
  Kd: 2.42 nM

## CSCC[C@H](NC(=O)[C@@H](NC(=O)[C@H](Cc1cnc[nH]1)NC(=O)[C@H](CSSC[C@H](NC(=O)[C@H](Cc1c[nH]c2ccccc12)NC(=O)[C@H](Cc1ccccc1)NC(=O)[C@H](CCC(=O)O)NC(=O)[C@H](CC(C)C)NC(=O)[C@H](CC(=O)O)NC(=O)[C@H](CC(=O)O)NC(=O)[C@H](CO)NC(C)=O)C(=O)N[C@@H](Cc1cnc[nH]1)C(=O)N[C@H](C(=O)N[C@@H](CCSC)C(=O)N[C@@H](Cc1ccc(O)cc1)C(N)=O)C(C)C)NC(=O)[C@H](Cc1c[nH]c2ccccc12)NC(=O)[C@H](Cc1ccccc1)NC(=O)[C@H](CCC(=O)O)NC(=O)[C@H](CC(C)C)NC(=O)[C@H](CC(=O)O)NC(=O)[C@H](CC(=O)O)NC(=O)[C@H](CO)NC(C)=O)C(C)C)C(=O)N[C@@H](Cc1ccc(O)cc1)C(N)=O (I: Ac-SDDLEFWCHVMY-NH2 / II: Ac-SDDLEFWCHVMY-NH2; disulfide I:8-II:8)
[1]
  Kd: 2.3 ×10⁻³ /s
[2]
  Kd: Not Active
[3]
  Kd: Not Active
[4]
  Kd: Not Active
[5]
  inhibition: Dose-dependent effect
[7]
  Kd: Not Active
[14]
  Stability: Unstable
[15]
  Stability: Unstable
[16]
  Stability: Stable
[8]
  Ka: 61.9 ×10⁵ /M/s
[9]
  inhibition: Dose-dependent effect
[17]
  Stability: Unstable
[10]
  Kd: 0.99 nM
[11]
  Kd: Not Active
[12]
  Kd: 0.37 nM
[13]
  Kd: 1.12 nM

## CC[C@H](C)[C@H](NC(=O)[C@H](Cc1cnc[nH]1)NC(=O)[C@H](CSSCC[C@H](NC(=O)[C@H](Cc1c[nH]c2ccccc12)NC(=O)[C@H](CC(C)C)NC(=O)[C@H](CCC(=O)O)NC(=O)[C@H](CC(C)C)NC(=O)[C@H](CC(=O)O)NC(=O)[C@H](CC(=O)O)NC(=O)[C@@H](NC(C)=O)[C@@H](C)O)C(=O)N[C@@H](Cc1cnc[nH]1)C(=O)N[C@H](C(=O)N[C@@H](CCSC)C(=O)N[C@@H](Cc1ccc(O)cc1)C(N)=O)[C@@H](C)CC)NC(=O)[C@H](Cc1c[nH]c2ccccc12)NC(=O)[C@H](CC(C)C)NC(=O)[C@H](CCC(=O)O)NC(=O)[C@H](CC(C)C)NC(=O)[C@H](CC(=O)O)NC(=O)[C@H](CC(=O)O)NC(=O)[C@@H](NC(C)=O)[C@H](C)O)C(=O)N[C@@H](CCSC)C(=O)N[C@@H](Cc1ccc(O)cc1)C(N)=O
[1]
  Kd: 6.3 ×10⁻³ /s
[14]
  Stability: Stable
[15]
  Stability: Stable
[16]
  Stability: Stable
[18]
  association rate constant (ka): 1.7 ×10⁷ /M/s
[12]
  Kd: 0.37 nM

## CC[C@H](C)[C@H](NC(=O)[C@H](Cc1cnc[nH]1)NC(=O)[C@H](CSSC[C@H](NC(=O)[C@H](Cc1c[nH]c2ccccc12)NC(=O)[C@H](Cc1cccc(Cl)c1)NC(=O)[C@H](CCC(=O)O)NC(=O)[C@H](CC(C)C)NC(=O)[C@H](CC(=O)O)NC(=O)[C@H](CC(=O)O)NC(=O)[C@@H](NC(C)=O)[C@H](C)O)C(=O)N[C@@H](Cc1cnc[nH]1)C(=O)N[C@H](C(=O)N[C@@H](CCSC)C(=O)N[C@@H](Cc1ccc(O)cc1)C(N)=O)[C@@H](C)CC)NC(=O)[C@H](Cc1c[nH]c2ccccc12)NC(=O)[C@H](CC(C)C)NC(=O)[C@H](CCC(=O)O)NC(=O)[C@H](Cc1cccc(Cl)c1)NC(=O)[C@H](CC(=O)O)NC(=O)[C@H](CC(=O)O)NC(=O)[C@@H](NC(C)=O)[C@H](C)O)C(=O)N[C@@H](CCSC)C(=O)N[C@@H](Cc1ccc(O)cc1)C(N)=O
[1]
  Kd: 0.54 ×10⁻³ /s
[2]
  Kd: Not Active
[3]
  Kd: Not Active
[4]
  Kd: Not Active
[5]
  inhibition: Dose-dependent effect
[6]
  IC50: 53 nM
[7]
  Kd: Not Active
[8]
  Ka: 139 ×10⁵ /M/s
[19]
  inhibition: Active
[9]
  inhibition: Dose-dependent effect
[10]
  Kd: 0.32 nM
[20]
  inhibition: Active
[11]
  Kd: Not Active
[12]
  Kd: 0.039 nM
[13]
  Kd: 0.34 nM
